This note sets out measurements from patent publication US20230104936A1, “TRPML MODULATORS” (Casma Therapeutics, Inc., priority 2019, published 2023).

Some results are limits rather than exact numbers.

The test system of the first assay is TFEB. The assay is described as follows: TFEB nuclear translocation assay, HeLa wt cells. The format is cell-based. The conditions noted are these: 2 hrs compound treatment, Table 1 does not say HeLa wt or TRPML1 KO. In outline:
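TFEB translocation into the nucleus of HeLa wt cells is scored by high-content immunofluorescence after 2 hrs of compound treatment at 37° C, reported as AC50.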
By AC50 is commonly meant the concentration giving half of the maximal activity seen. Lower therefore signals activity at low concentration. In the case of `CC(c1cccc(F)c1N1[C@@H]2CCC[C@H]1CC2)S(=O)(=O)c1ccc(S(=N)(=O)N(C)C)cc1` (single isomer, unassigned) [Compound A-989, 4-((1-(2-(8-azabicyclo[3.2.1]octan-8-yl)-3-fluorophenyl)ethyl)sulfonyl)-N,N-dimethylbenzenesulfonimidamide], the AC50 lay in the range of 8010 to 9990 nM.
Same read-out and setting: the same measure for `Cc1cnc(N2CCC(CN3CCC(F)(F)CC3)CC2)c(C(C)S(=O)(=O)c2ccc(S(=O)(=O)N(C)C)cc2)c1` (single isomer, unassigned) [Compound A-990, 4-((1-(2-(4-((4,4-difluoropiperidin-1-yl)methyl)piperidin-1-yl)-5-methylpyridin-3-yl)ethyl)sulfonyl)-N,N-dimethylbenzenesulfonamide]: at most 2000 nM.
Same read-out and setting: as for `CC(c1cccc(F)c1N1CCCCC1)S(=O)(=O)c1ccc(S2(=O)=NCCC2)cc1` (single isomer, unassigned) [Compound A-991, 1-(4-((1-(3-fluoro-2-(piperidin-1-yl)phenyl)ethyl)sulfonyl)phenyl)-4,5-dihydro-3H-isothiazole 1-oxide], the figure is 2010 to 8000 nM; as for `CC(c1cccc(F)c1N1CCCCC1)S(=O)(=O)c1ccc(S2(=O)=NCCC2)cc1` (single isomer, unassigned) [Compound A-992, 1-(4-((1-(3-fluoro-2-(piperidin-1-yl)phenyl)ethyl)sulfonyl)phenyl)-4,5-dihydro-3H-isothiazole 1-oxide], at least 10000 nM.
On the same count and under the same terms, the same measure for `CC(c1cc(Cl)cnc1N1CCC(CN2CCC(F)(F)CC2)CC1)S(=O)(=O)c1ccc2c(c1)CCC2` (single isomer, unassigned) [Compound A-994, 5-chloro-2-(4-((4,4-difluoropiperidin-1-yl)methyl)piperidin-1-yl)-3-(1-((2,3-dihydro-1H-inden-5-yl)sulfonyl)ethyl)pyridine]: at most 2000 nM; for `Cc1cnc(N2CCC(CN3CCC(F)(F)CC3)CC2)c(C(C)S(=O)(=O)c2ccc(S(=O)(=O)N(C)C)cc2)c1` (single isomer, unassigned) [Compound A-995, 4-((1-(2-(4-((4,4-difluoropiperidin-1-yl)methyl)piperidin-1-yl)-5-methylpyridin-3-yl)ethyl)sulfonyl)-N,N-dimethylbenzenesulfonamide]: at least 10000 nM.
`CC(c1cccc(F)c1N1CCC(CN2CCC(F)(F)CC2)CC1)S(=O)(=O)c1ccc(C(F)F)cc1` (single isomer, unassigned) [Compound A-998, 1-((1-(2-(1-((4-(difluoromethyl)phenyl)sulfonyl)ethyl)-6-fluorophenyl)piperidin-4-yl)methyl)-4,4-difluoropiperidine] came in with a concentration at half-maximal activity (AC50) of 2010 to 8000 nM.
Same read-out and setting: as for `Cc1cnc(N2CCC(CN3CCC(F)(F)CC3)CC2)c(C(C)S(=O)(=O)c2ccc3c(c2)CCC3)c1` (single isomer, unassigned) [Compound A-999, 2-(4-((4,4-difluoropiperidin-1-yl)methyl)piperidin-1-yl)-3-(1-((2,3-dihydro-1H-inden-5-yl)sulfonyl)ethyl)-5-methylpyridine], the figure is at most 2000 nM; as for `Cc1cnc(N2CCC(CN3CCC(F)(F)CC3)CC2)c(C(C)S(=O)(=O)c2ccc3c(c2)CCC3)c1` (single isomer, unassigned) [Compound A-1000, 2-(4-((4,4-difluoropiperidin-1-yl)methyl)piperidin-1-yl)-3-(1-((2,3-dihydro-1H-inden-5-yl)sulfonyl)ethyl)-5-methylpyridine], at least 10000 nM.
Same read-out and setting: the same measure for `C[C@@H]1CN(CC2CCN(c3c(F)cccc3[C@H](C)S(=O)(=O)c3ccc(S(=N)(=O)N(C)C)cc3)CC2)C[C@H](C)O1` (single isomer, unassigned) [Compound A-1001]: at most 2000 nM; for `COCC1(C)CCN(c2ccccc2C(C)S(=O)(=O)c2ccc(S(=O)(=O)N(C)C)cc2)CC1` (single isomer, unassigned; enantiomer 2) [Compound A-699, 4-((1-(2-(4-(methoxymethyl)-4-methylpiperidin-1-yl)phenyl)ethyl)sulfonyl)-N,N-dimethylbenzenesulfonamide, enantiomer 2]: 2010 to 8000 nM.

The assay is the same for the next values; noted with them: Homo sapiens, HeLa, 2 h, 2 hrs compound treatment, Table 1 does not say HeLa wt or TRPML1 KO.
For the compound `CC(c1cccc(F)c1N1[C@@H]2CCC[C@H]1CC2)S(=O)(=O)c1ccc(S(=N)(=O)N(C)C)cc1` (single isomer, unassigned) [Compound A-988, 4-((1-(2-(8-azabicyclo[3.2.1]octan-8-yl)-3-fluorophenyl)ethyl)sulfonyl)-N,N-dimethylbenzenesulfonimidamide], the AC50 is at least 10000 nM.
On to `CC(c1cc(Cl)cnc1N1CCC(CN2CCC(F)(F)CC2)CC1)S(=O)(=O)c1ccc2c(c1)CCC2` (single isomer, unassigned) [Compound A-993, 5-chloro-2-(4-((4,4-difluoropiperidin-1-yl)methyl)piperidin-1-yl)-3-(1-((2,3-dihydro-1H-inden-5-yl)sulfonyl)ethyl)pyridine], for which the AC50 was at most 2000 nM.
Same read-out and setting: the same measure for `CC(c1cccc(F)c1N1CCC(CN2CCC(F)(F)CC2)CC1)S(=O)(=O)c1ccc(C(F)F)cc1` (single isomer, unassigned) [Compound A-997, 1-((1-(2-(1-((4-(difluoromethyl)phenyl)sulfonyl)ethyl)-6-fluorophenyl)piperidin-4-yl)methyl)-4,4-difluoropiperidine]: at most 2000 nM; for `COCC1(C)CCN(c2ccccc2C(C)S(=O)(=O)c2ccc(S(=O)(=O)N(C)C)cc2)CC1` (single isomer, unassigned; enantiomer 1) [Compound A-698, 4-((1-(2-(4-(methoxymethyl)-4-methylpiperidin-1-yl)phenyl)ethyl)sulfonyl)-N,N-dimethylbenzenesulfonamide, enantiomer 1]: at most 2000 nM; for `C[C@@H]1COC[C@@H](C)N1CC1CN(c2c(F)cccc2NS(=O)(=O)c2ccc(S(=O)(=O)N(C)C)cc2)C1` (stereo in doubt) [Compound A-873, N1-(2-(3-((3,5-dimethylmorpholino)methyl)azetidin-1-yl)-3-fluorophenyl)-N4,N4-dimethylbenzene-1,4-disulfonamide]: at least 10000 nM.
With `C[C@@H]1COC[C@@H](C)N1CC1CN(c2c(F)cccc2NS(=O)(=O)c2ccc(S(=O)(=O)N(C)C)cc2)C1` (stereo in doubt) [Compound A-915, rel-N4-[2-(3-{[(3R,5R)-3,5-dimethylmorpholin-4-yl]methyl}azetidin-1-yl)-3-fluorophenyl]-N1,N1-dimethylbenzene-1,4-disulfonamide], the AC50 is at least 10000 nM.
Still for that read-out and setting: as for `C[C@H]1COC[C@H](C)N1CC1CN(c2c(F)cccc2NS(=O)(=O)c2ccc(S(=O)(=O)N(C)C)cc2)C1` (stereo in doubt) [Compound A-916, rel-N4-[2-(3-{[(3R,5R)-3,5-dimethylmorpholin-4-yl]methyl}azetidin-1-yl)-3-fluorophenyl]-N1,N1-dimethylbenzene-1,4-disulfonamide], the figure is at least 10000 nM; as for `O=S(=O)(Nc1ccccc1N1CCN(c2ccc(Cl)cc2F)CC1)c1cccnc1` [Compound A-1, N-{2-[4-(4-chloro-2-fluorophenyl)piperazin-1-yl]phenyl}pyridine-3-sulfonamide], at most 2000 nM.
For the compound `Cn1cnc(S(=O)(=O)Nc2ccccc2N2CCN(c3ccc(Cl)cc3F)CC2)c1` [Compound A-2, N-{2-[4-(4-chloro-2-fluorophenyl)piperazin-1-yl]phenyl}-1-methyl-1H-imidazole-4-sulfonamide], the AC50 was at most 2000 nM.
For the compound `CN(C)S(=O)(=O)c1ccc(S(=O)(=O)Nc2ccccc2C#Cc2ccc(Cl)cc2F)cc1` [Compound A-3, N1-(2-((4-chloro-2-fluorophenyl)ethynyl)phenyl)-N4,N4-dimethylbenzene-1,4-disulfonamide], the half-maximal activity concentration (AC50) was at most 2000 nM.
Regarding `COc1cccc(S(=O)(=O)Nc2ccccc2N2CCN(c3ccc(Cl)cc3F)CC2)c1` [Compound A-4, N-{2-[4-(4-chloro-2-fluorophenyl)piperazin-1-yl]phenyl}-3-methoxybenzene-1-sulfonamide], the AC50 was at most 2000 nM.
On the same count and under the same terms, the same measure for `N#Cc1cccc(S(=O)(=O)Nc2ccccc2N2CCN(c3ccc(Cl)cc3F)CC2)c1` [Compound A-5, N-{2-[4-(4-chloro-2-fluorophenyl)piperazin-1-yl]phenyl}-3-cyanobenzene-1-sulfonamide]: 2010 to 8000 nM.
Still for that read-out and setting: the same measure for `Cn1cc(S(=O)(=O)Nc2ccccc2N2CCN(c3ccc(Cl)cc3F)CC2)cn1` [Compound A-6, N-{2-[4-(4-chloro-2-fluorophenyl)piperazin-1-yl]phenyl}-1-methyl-1H-pyrazole-4-sulfonamide]: at least 10000 nM; for `Cc1nc(C)c(S(=O)(=O)Nc2ccccc2N2CCN(c3ccc(Cl)cc3F)CC2)s1` [Compound A-7, N-{2-[4-(4-chloro-2-fluorophenyl)piperazin-1-yl]phenyl}-2,4-dimethyl-1,3-thiazole-5-sulfonamide]: at most 2000 nM; for `O=S(=O)(Nc1ccccc1N1CCN(c2ccc(Cl)cc2F)CC1)C1CCCCC1` [Compound A-8, N-{2-[4-(4-chloro-2-fluorophenyl)piperazin-1-yl]phenyl}cyclohexanesulfonamide]: at least 10000 nM.
Regarding `CN(C)S(=O)(=O)c1ccc(NC(=O)c2ccccc2N2CCN(c3ccc(Cl)cc3F)CC2)cc1` [Compound A-9, 2-(4-(4-chloro-2-fluorophenyl)piperazin-1-yl)-N-(4-(N,N-dimethylsulfamoyl)phenyl)benzamide], the concentration at half-maximal activity (AC50) is at most 2000 nM.
The same measure, in the same setting: as for `CN(C)S(=O)(=O)c1ccc(S(=O)(=O)Nc2ccccc2N2CCC(c3ccccc3F)CC2)cc1` [Compound A-10, N4-{2-[4-(2-fluorophenyl)piperidin-1-yl]phenyl}-N1,N1-dimethylbenzene-1,4-disulfonamide], the figure is at most 2000 nM.
With `CN(C)S(=O)(=O)c1ccc(C(=O)Nc2ccccc2N2CCN(c3ccc(Cl)cc3F)CC2)cc1` [Compound A-11, N-{2-[4-(4-chloro-2-fluorophenyl)piperazin-1-yl]phenyl}-4-(dimethylsulfamoyl)benzamide], the concentration at half-maximal activity (AC50) was at most 2000 nM.
